Test results: patent US11541055B2, “Inhibitors of human immunodeficiency virus replication” (ViiV Healthcare UK (No. 5) LIMITED, priority 2018, dated 2023)

How the values were obtained:
[1] = tested on: recombinant NL4-3 virus (Renilla luciferase) in MT-2 cells; assay: HIV cell culture assay (antiviral activity, luciferase readout); type: cell-based; conditions: Renilla, NL43
Outline: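 MT-2 cells were infected with recombinant NL4-3 virus carrying Renilla luciferase in place of part of nef. Cells were cultured 4–5 days with serially diluted compound, and luciferase was measured with a live-cell substrate. EC50 was calculated from the median effect equation.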

[2] = Compound cytotoxicity, XTT-based colorimetric assay; type: cell-based; conditions: human; uninfected MT2 cells, day 4, XTT
Outline: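 Run under the antiviral-assay protocol but without virus. Viability was read on day 4 and CC50 values were derived from the readout.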

Compound | EC50 [1] | CC50 at 4 days [2]
COc1ncc(-c2ccc3c(=O)n(-c4ccc(Cl)c5c(NS(C)(=O)=O)nn(C)c45)c([C@H](Cc4cc(F)cc(F)c4)NC(=O)Cn4nc(C(F)F)c5c4C(F)(F)[C@@H]4C[C@H]54)nc3c2)cn1 (atropisomer, axis not shown; (P)) [Example 39, N—((S)-1-((3P)-3-(4-chloro-1-methyl-3-(methylsulfonamido)-1H-indazol-7-yl)-7-(2-methoxypyrimidin-5-yl)-4-oxo-3,4-dihydroquinazolin-2-yl)-2-(3,5-difluorophenyl)ethyl)-2-((3bS,4aR)-3-(difluoromethyl)-5,5-difluoro-3b,4,4a,5-tetrahydro-1H-cyclopropa[3,4]cyclopenta[1,2-c]pyrazol-1-yl)acetamide] | 0.042 nM | > 500 nM
Cc1ncnc(C)c1-c1ccc2c(=O)n(-c3ccc(Cl)c4c(NS(C)(=O)=O)nn(C)c34)c([C@H](Cc3cc(F)cc(F)c3)NC(=O)Cn3nc(C(F)F)c4c3C(F)(F)[C@@H]3C[C@H]43)nc2c1 (atropisomer, axis not shown; (P)) [Example 40, N—((S)-1-((3P)-3-(4-chloro-1-methyl-3-(methylsulfonamido)-1H-indazol-7-yl)-7-(4,6-dimethylpyrimidin-5-yl)-4-oxo-3,4-dihydroquinazolin-2-yl)-2-(3,5-difluorophenyl)ethyl)-2-((3bS,4aR)-3-(difluoromethyl)-5,5-difluoro-3b,4,4a,5-tetrahydro-1H-cyclopropa[3,4]cyclopenta[1,2-c]pyrazol-1-yl)acetamide] | 0.053 nM | > 500 nM
Cn1nc(NS(C)(=O)=O)c2c(Cl)ccc(-n3c([C@H](Cc4cc(F)cc(F)c4)NC(=O)Cn4nc(C(F)F)c5c4C(F)(F)[C@@H]4C[C@H]54)nc4cc(-c5cccc(C6CC6)n5)ccc4c3=O)c21 (atropisomer, axis not shown; (P)) [Example 41, N—((S)-1-((3P)-3-(4-chloro-1-methyl-3-(methylsulfonamido)-1H-indazol-7-yl)-7-(6-cyclopropylpyridin-2-yl)-4-oxo-3,4-dihydroquinazolin-2-yl)-2-(3,5-difluorophenyl)ethyl)-2-((3bS,4aR)-3-(difluoromethyl)-5,5-difluoro-3b,4,4a,5-tetrahydro-1H-cyclopropa[3,4]cyclopenta[1,2-c]pyrazol-1-yl)acetamide] | 0.33 nM | > 500 nM
Cc1ncncc1-c1ccc2c(=O)n(-c3ccc(Cl)c4c(NS(C)(=O)=O)nn(C)c34)c([C@H](Cc3cc(F)cc(F)c3)NC(=O)Cn3nc(C(F)F)c4c3C(F)(F)[C@@H]3C[C@H]43)nc2c1 (atropisomer, axis not shown; (P)) [Example 42, N—((S)-1-((3P)-3-(4-chloro-1-methyl-3-(methylsulfonamido)-1H-indazol-7-yl)-7-(4-methylpyrimidin-5-yl)-4-oxo-3,4-dihydroquinazolin-2-yl)-2-(3,5-difluorophenyl)ethyl)-2-((3bS,4aR)-3-(difluoromethyl)-5,5-difluoro-3b,4,4a,5-tetrahydro-1H-cyclopropa[3,4]cyclopenta[1,2-c]pyrazol-1-yl)acetamide] | 0.074 nM | > 500 nM
CCc1ccnc(-c2ccc3c(=O)n(-c4ccc(Cl)c5c(NS(C)(=O)=O)nn(C)c45)c([C@H](Cc4cc(F)cc(F)c4)NC(=O)Cn4nc(C(F)F)c5c4C(F)(F)[C@@H]4C[C@H]54)nc3c2)n1 (atropisomer, axis not shown; (P)) [Example 43, N—((S)-1-((3P)-3-(4-chloro-1-methyl-3-(methylsulfonamido)-1H-indazol-7-yl)-7-(4-ethylpyrimidin-2-yl)-4-oxo-3,4-dihydroquinazolin-2-yl)-2-(3,5-difluorophenyl)ethyl)-2-((3bS,4aR)-3-(difluoromethyl)-5,5-difluoro-3b,4,4a,5-tetrahydro-1H-cyclopropa[3,4]cyclopenta[1,2-c]pyrazol-1-yl)acetamide] | 0.058 nM | > 500 nM
Cc1cc(-c2ccc3c(=O)n(-c4ccc(Cl)c5c(NS(C)(=O)=O)nn(C)c45)c([C@H](Cc4cc(F)cc(F)c4)NC(=O)Cn4nc(C(F)F)c5c4C(F)(F)[C@@H]4C[C@H]54)nc3c2)nc(C)n1 (atropisomer, axis not shown; (P)) [Example 44, N—((S)-1-((3P)-3-(4-chloro-1-methyl-3-(methylsulfonamido)-1H-indazol-7-yl)-7-(2,6-dimethylpyrimidin-4-yl)-4-oxo-3,4-dihydroquinazolin-2-yl)-2-(3,5-difluorophenyl)ethyl)-2-((3bS,4aR)-3-(difluoromethyl)-5,5-difluoro-3b,4,4a,5-tetrahydro-1H-cyclopropa[3,4]cyclopenta[1,2-c]pyrazol-1-yl)acetamide] | 0.04 nM | > 500 nM
COc1ccc(-c2ccc3c(=O)n(-c4ccc(Cl)c5c(NS(C)(=O)=O)nn(C)c45)c([C@H](Cc4cc(F)cc(F)c4)NC(=O)Cn4nc(C(F)F)c5c4C(F)(F)[C@@H]4C[C@H]54)nc3c2)nc1 (atropisomer, axis not shown; (P)) [Example 45, N—((S)-1-((3P)-3-(4-chloro-1-methyl-3-(methylsulfonamido)-1H-indazol-7-yl)-7-(5-methoxypyridin-2-yl)-4-oxo-3,4-dihydroquinazolin-2-yl)-2-(3,5-difluorophenyl)ethyl)-2-((3bS,4aR)-3-(difluoromethyl)-5,5-difluoro-3b,4,4a,5-tetrahydro-1H-cyclopropa[3,4]cyclopenta[1,2-c]pyrazol-1-yl)acetamide] | 0.1 nM | > 500 nM
CC(C)c1cccc(-c2ccc3c(=O)n(-c4ccc(Cl)c5c(NS(C)(=O)=O)nn(C)c45)c([C@H](Cc4cc(F)cc(F)c4)NC(=O)Cn4nc(C(F)F)c5c4C(F)(F)[C@@H]4C[C@H]54)nc3c2)n1 (atropisomer, axis not shown; (P)) [Example 46, N—((S)-1-((3P)-3-(4-chloro-1-methyl-3-(methylsulfonamido)-1H-indazol-7-yl)-7-(6-isopropylpyridin-2-yl)-4-oxo-3,4-dihydroquinazolin-2-yl)-2-(3,5-difluorophenyl)ethyl)-2-((3bS,4aR)-3-(difluoromethyl)-5,5-difluoro-3b,4,4a,5-tetrahydro-1H-cyclopropa[3,4]cyclopenta[1,2-c]pyrazol-1-yl)acetamide] | 0.23 nM | > 500 nM
Cn1nc(NS(C)(=O)=O)c2c(Cl)ccc(-n3c([C@H](Cc4cc(F)cc(F)c4)NC(=O)Cn4nc(C(F)F)c5c4C(F)(F)[C@@H]4C[C@H]54)nc4cc(-c5nccc(C(C)(C)C)n5)ccc4c3=O)c21 (atropisomer, axis not shown; (P)) [Example 47, N—((S)-1-(7-(4-(tert-butyl)pyrimidin-2-yl)-(3P)-3-(4-chloro-1-methyl-3-(methylsulfonamido)-1H-indazol-7-yl)-4-oxo-3,4-dihydroquinazolin-2-yl)-2-(3,5-difluorophenyl)ethyl)-2-((3bS,4aR)-3-(difluoromethyl)-5,5-difluoro-3b,4,4a,5-tetrahydro-1H-cyclopropa[3,4]cyclopenta[1,2-c]pyrazol-1-yl)acetamide] | 0.19 nM | > 500 nM
Cc1cc(C(F)(F)F)cc(-c2ccc3c(=O)n(-c4ccc(Cl)c5c(NS(C)(=O)=O)nn(C)c45)c([C@H](Cc4cc(F)cc(F)c4)NC(=O)Cn4nc(C(F)F)c5c4C(F)(F)[C@@H]4C[C@H]54)nc3c2)n1 (atropisomer, axis not shown; (P)) [Example 48, N—((S)-1-((3P)-3-(4-chloro-1-methyl-3-(methylsulfonamido)-1H-indazol-7-yl)-7-(6-methyl-4-(trifluoromethyl)pyridin-2-yl)-4-oxo-3,4-dihydroquinazolin-2-yl)-2-(3,5-difluorophenyl)ethyl)-2-((3bS,4aR)-3-(difluoromethyl)-5,5-difluoro-3b,4,4a,5-tetrahydro-1H-cyclopropa[3,4]cyclopenta[1,2-c]pyrazol-1-yl)acetamide] | 0.5 nM | > 500 nM
Cn1nc(NS(C)(=O)=O)c2c(Cl)ccc(-n3c([C@H](Cc4cc(F)cc(F)c4)NC(=O)Cn4nc(C(F)F)c5c4C(F)(F)[C@@H]4C[C@H]54)nc4cc(-c5cccnn5)ccc4c3=O)c21 (atropisomer, axis not shown; (P)) [Example 49, N—((S)-1-((3P)-3-(4-chloro-1-methyl-3-(methylsulfonamido)-1H-indazol-7-yl)-4-oxo-7-(pyridazin-3-yl)-3,4-dihydroquinazolin-2-yl)-2-(3,5-difluorophenyl)ethyl)-2-((3bS,4aR)-3-(difluoromethyl)-5,5-difluoro-3b,4,4a,5-tetrahydro-1H-cyclopropa[3,4]cyclopenta[1,2-c]pyrazol-1-yl)acetamide] | 0.071 nM | > 500 nM
Cc1ccc(-c2ccc3c(=O)n(-c4ccc(Cl)c5c(NS(C)(=O)=O)nn(C)c45)c([C@H](Cc4cc(F)cc(F)c4)NC(=O)Cn4nc(C(F)F)c5c4C(F)(F)[C@@H]4C[C@H]54)nc3c2)nn1 (atropisomer, axis not shown; (P)) [Example 50, N—((S)-1-((3P)-3-(4-chloro-1-methyl-3-(methylsulfonamido)-1H-indazol-7-yl)-7-(6-methylpyridazin-3-yl)-4-oxo-3,4-dihydroquinazolin-2-yl)-2-(3,5-difluorophenyl)ethyl)-2-((3bS,4aR)-3-(difluoromethyl)-5,5-difluoro-3b,4,4a,5-tetrahydro-1H-cyclopropa[3,4]cyclopenta[1,2-c]pyrazol-1-yl)acetamide] | 0.047 nM | > 500 nM
